The results in this text go back to publication PMC4506051, “Pharmacokinetic Profiles of Active Ingredients and Its Metabolites Derived from Rikkunshito, a Ghrelin Enhancer, in Healthy Japanese Volunteers: A Cross-Over, Randomized Study” (PLoS ONE, 2015).

In general, AUC(0-t) refers to the area under the concentration-time curve up to a stated or last time point. Low values mean low exposure, high ones high exposure. By Cmax is commonly meant the peak of the concentration-time curve. Usually Tmax stands for the time at which the peak concentration occurs. In general, half-life refers to the time in which the quantity being followed falls by half. A low value points to fast loss.

Data set [1] is described as follows: Randomized crossover quantitative trial: plasma pharmacokinetics of nine ingredients after rikkunshito 2.5, 5.0 or 7.5 g. Conditions: for AUC(0-t): AUC0-last; for Cmax: C max. A digest of the protocol:
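Plasma concentrations of ingredients were measured by LC–MS/MS or GC–MS in samples taken from pre-dose to 48 h. Dosing was a single oral rikkunshito dose (2.5, 5.0 or 7.5 g; three-arm randomized crossover) in fasted healthy Japanese volunteers aged 20–45.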

Data set [2] can be described thus: Exploratory trial: plasma concentration of rikkunshito ingredients after single oral rikkunshito 7.5 g. In kind it is in vivo. Conditions: for Plasma concentration, 0 h: 0 h (preadministration), single oral rikkunshito 7.5 g; for Plasma concentration, 4 h: 4 h after single oral rikkunshito 7.5 g; for Plasma concentration, 2 h: 2 h after single oral rikkunshito 7.5 g. A digest of the protocol:
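Plasma and urine levels were measured by LC–MS/MS after one 7.5 g oral dose of rikkunshito. Samples were collected before dosing and at 0.5–8 h for blood, or in 0–4 h and 4–8 h fractions for urine. Synephrine was determined after protein-removal plate cleanup; the other ingredients after β-glucuronidase deconjugation (2 h, 37°C) and SPE.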

Data set [3] is described as follows: Method validation: freeze-thaw stability in plasma.
Data set [4] is described as follows: Method validation: short-term stability in plasma.
[5] abbreviates: human, plasma, po, 2.5 g, rikkunshito 2.5 g single oral, n = 21, geometric mean (95% CI).
The mark [6] stands for this setting: human, plasma, po, 2.5 g, Median t max (range), rikkunshito 2.5 g single oral, n = 21, median (minimum–maximum).
Where [7] appears, read: human, plasma, po, 5 g, rikkunshito 5.0 g single oral, n = 19, geometric mean (95% CI).
Setting [8] is: human, plasma, po, 5 g, Median t max (range), rikkunshito 5.0 g single oral, n = 19, median (minimum–maximum).
Where [9] appears, read: human, plasma, po, 5 g, t 1/2, rikkunshito 5.0 g single oral, n = 19, geometric mean (95% CI).
Setting [10] is: human, plasma, po, 7.5 g, rikkunshito 7.5 g single oral, n = 19, geometric mean (95% CI).
[11] abbreviates: rikkunshito 7.5 g single oral, n = 19, geometric mean (95% CI).
[12] abbreviates: rikkunshito 7.5 g single oral, n = 19, median (minimum–maximum).
Where [13] appears, read: 1 h after single oral rikkunshito 7.5 g, mean ± S.D., n = 4.
Where [14] appears, read: 8 h after single oral rikkunshito 7.5 g, mean ± S.D., n = 4.
Setting [15] is: −30°C to −10°C, 3 cycles, higher concentration (800 / 320 / 4000 pg/mL).
Where [16] appears, read: −30°C to −10°C, 3 cycles, lower concentration (20 / 8 / 100 pg/mL).
Setting [17] is: room temperature (1°C to 30°C) 4 h, higher concentration (800 / 320 / 4000 pg/mL).
[18] abbreviates: room temperature (1°C to 30°C) 4 h, lower concentration (20 / 8 / 100 pg/mL).
[19] abbreviates: 0.5 h after single oral rikkunshito 7.5 g, mean ± S.D., n = 4.
[20] abbreviates: human, in vivo, po, rikkunshito 2.5 g single oral, n = 21, geometric mean (95% CI).
The mark [21] stands for this setting: human, in vivo, po, rikkunshito 5.0 g single oral, n = 19, geometric mean (95% CI).
Where [22] appears, read: human, in vivo, po, rikkunshito 7.5 g single oral, n = 19, geometric mean (95% CI).

For `O=C(/C=C/c1ccc(O)cc1)c1ccc(O)cc1O` [Isoliquiritigenin], the AUC(0-t) in data set [1] (setting [5]) stood at 0.0307 ng·h/mL; in data set [1] (setting [7]), 0.0766 ng·h/mL; in data set [1] (setting [10]), 0.122 ng·h/mL. For the same molecule, the figures for the Cmax in data set [1] (setting [5]), in data set [1] (setting [7]) and in data set [1] (setting [10]) were 0.0205 ng/mL, 0.0321 ng/mL and approximately 0.0428 ng/mL, respectively. Further, the Tmax in data set [1] (setting [6]) and in data set [1] (setting [8]) was 0.25 h in each case. In data set [1] (setting [9]), this molecule had a half-life of 4.12 h. For the same molecule, the C max in data set [1] (setting [11]) is listed as 42.8 (30.4–60.3) pg/mL. Moreover, the “t 1/2” value in data set [1] (setting [11]) was 3.26 (1.69–6.31) h; in data set [1] (rikkunshito 7.5 g single oral, n = 19, geometric mean (95% CI), listed as isoliquiritigenin) it was less than 10 h. Besides, the “Median t max (range)” value in data set [1] (setting [12]) is given as 0.250 (0.250–4.00) h; in data set [1] (rikkunshito 7.5 g single oral, n = 19, median (minimum–maximum), listed as isoliquiritigenin) it was not above 1 h. In data set [2] (mean ± S.D., n = 4), the “Plasma concentration, 0 h” value was “BQL”. For the same molecule, in data set [2] (setting [13]), the “Plasma concentration, 1 h” value is reported as “BQL”. Moreover, the “Plasma concentration, 4 h” value in data set [2] (mean ± S.D., n = 4) was “BQL”. For the same molecule, the “Plasma concentration, 8 h” value in data set [2] (setting [14]) is on record as “BQL”. Further, in data set [2] (human, in vivo, po), the concentration at 0.5 h amounted to 0.0153 ng/mL. Also, in data set [2] (human, in vivo, po), the concentration at 2 h was 0.0171 ± 0.0343 ng/mL. In addition, in data set [2] (human, in vivo, po, 0.5 h), the “Plasma concentration, 0.5 h” value worked out at 0.0153 ± 0.018 ng/mL. The “Freeze-thaw stability, RR” value in data set [3] (4 pg/mL, deep freezer (−30°C to −10°C), after 3 cycles of freeze-thaw) is listed as 95.3%; in data set [3] (160 pg/mL, deep freezer (−30°C to −10°C), after 3 cycles of freeze-thaw), 88.3%. For the same molecule, the “Short-term stability, RR” value in data set [4] (4 pg/mL, at room temperature for 4 h) turned out to be 97.0%; in data set [4] (4 pg/mL, at room temperature for 24 h), 96.5%; in data set [4] (160 pg/mL, at room temperature for 4 h), 85.2%; in data set [4] (160 pg/mL, at room temperature for 24 h) it was 101.2%.

Take `O=C1C[C@@H](c2ccc(O)cc2)Oc2cc(O)cc(O)c21` [Naringenin]: the AUC(0-t) in data set [1] (setting [5]) came to 1.65 ng·h/mL; in data set [1] (setting [7]), 3.32 ng·h/mL; in data set [1] (setting [10]) it was 4.63 ng·h/mL. Besides, the Cmax in data set [1] (setting [5]) amounted to 0.376 ng/mL; in data set [1] (setting [7]), 0.878 ng/mL; in data set [1] (setting [10]), 1.15 ng/mL. The Tmax in data set [1] (setting [6]) is 5.83 h; in data set [1] (setting [8]), 4 h; in data set [1] (human, plasma, po, 7.5 g, Median t max (range), rikkunshito 7.5 g single oral, n = 19, median (minimum–maximum)), more than 3 h. Further, the half-life in data set [1] (setting [9]) is 4.46 h; in data set [1] (human, plasma, po, 7.5 g, t 1/2, rikkunshito 7.5 g single oral, n = 19, geometric mean (95% CI)), less than 10 h. Also, the “t 1/2” value in data set [1] (setting [11]) is 5.38 (3.31–8.76) h. Also, the “Median t max (range)” value in data set [1] (setting [12]) is listed as 4.00 (2.00–6.00) h. The same molecule yielded a concentration at 0 h in data set [2] (human, in vivo, po) of 0.378 ± 0.755 ng/mL. In data set [2] (human, in vivo, po), this molecule gave a concentration at 0.5 h of 0.0358 ± 0.0715 ng/mL. This molecule had a concentration at 2 h in data set [2] (human, in vivo, po) of 0.0813 ± 0.105 ng/mL. The concentration at 4 h in data set [2] (human, in vivo, po) was 0.0715 ± 0.0831 ng/mL. Moreover, the “Plasma concentration, 1 h” value in data set [2] (in vivo, po) is “BQL”. Further, the “Plasma concentration, 8 h” value in data set [2] (in vivo, po) is reported as “BQL”. In addition, the “Freeze-thaw stability, RR” value in data set [3] (setting [15]) was 96.7%; in data set [3] (setting [16]), 90.6%. Moreover, the “Short-term stability, RR” value in data set [4] (naringenin 100 pg/mL, room temperature, 24 h as printed in the cell) was determined as 113.8%; in data set [4] (naringenin 4000 pg/mL, room temperature, 24 h as printed in the cell), 112.2%; in data set [4] (setting [17]), 92.8%; in data set [4] (setting [18]), 102.1%.

In turn, `COc1ccc(-c2cc(=O)c3c(OC)c(OC)c(OC)c(OC)c3o2)cc1OC` [Nobiletin] yielded a t max values in data set [1] (human, in vivo) of 15 min-1 h. In addition, the “Plasma concentration, 0 h” value in data set [2] (mean ± S.D., n = 4) is “BQL”. In addition, the “Plasma concentration, 0.5 h” value in data set [2] (setting [19]) amounted to 0.047 ± 0.0474 ng/mL. For the same molecule, in data set [2] (setting [13]), the “Plasma concentration, 1 h” value amounted to 0.0282 ± 0.0389 ng/mL. Moreover, the “Plasma concentration, 2 h” value in data set [2] (mean ± S.D., n = 4) was determined as 0.00545 ± 0.0109 ng/mL. For the same molecule, in data set [2] (mean ± S.D., n = 4), the “Plasma concentration, 4 h” value is listed as “BQL”. The “Plasma concentration, 8 h” value in data set [2] (setting [14]) is “BQL”. The “Freeze-thaw stability, RR” value in data set [3] (8 pg/mL, deep freezer (−30°C to −10°C), after 3 cycles of freeze-thaw) was 86.0%; in data set [3] (320 pg/mL, deep freezer (−30°C to −10°C), after 3 cycles of freeze-thaw), 107.9%. Moreover, the “Short-term stability, RR” value in data set [4] (8 pg/mL, at room temperature for 4 h) stood at 106.5%; in data set [4] (8 pg/mL, at room temperature for 25 h), 114.3%; in data set [4] (320 pg/mL, at room temperature for 4 h), 109.7%; in data set [4] (320 pg/mL, at room temperature for 25 h), 92.5%.

For `C=C(CC[C@@H](C(=O)O)[C@H]1[C@H](O)C[C@@]2(C)C3=C(CC[C@]12C)[C@@]1(C)CC[C@H](OC(C)=O)C(C)(C)[C@@H]1CC3)C(C)C` [Pachymic acid], the “Plasma concentration just before the administration” value in data set [1] (all subjects, quantitative trial) was “BQL”. Moreover, the AUC(0-t) in data set [1] (setting [20]) was determined as 0.277 ng·h/mL; in data set [1] (setting [21]), 0.716 ng·h/mL; in data set [1] (setting [22]), 1.21 ng·h/mL. Moreover, the Cmax in data set [1] (setting [20]) came out at 0.0363 ng/mL; in data set [1] (setting [21]), 0.0612 ng/mL; in data set [1] (setting [22]), 0.091 ng/mL. The Tmax was 6 h in data set [1] (human, in vivo, po, Median t max (range), rikkunshito 2.5 g single oral, n = 21, median (minimum–maximum)); 6 h in data set [1] (human, in vivo, po, Median t max (range), rikkunshito 5.0 g single oral, n = 19, median (minimum–maximum)); more than 3 h in data set [1] (human, in vivo, po, Median t max (range), rikkunshito 7.5 g single oral, n = 19, median (minimum–maximum)); 6 h in data set [1] (human, in vivo, t max, after rikkunshito administration, dose not given). This molecule also showed a half-life in data set [1] (human, in vivo, po, t 1/2, rikkunshito 5.0 g single oral, n = 19, geometric mean (95% CI)) of 16.2 h. Moreover, the “t 1/2” value in data set [1] (setting [11]) is given as 20.5 (14.4–29.2) h; in data set [1] (rikkunshito 7.5 g single oral, n = 19, geometric mean (95% CI), listed as pachymic acid) it was “exceeding 10 h”. Also, the “Median t max (range)” value in data set [1] (setting [12]) was 6.00 (2.00–11.5) h. The “Plasma concentration, 0 h” value in data set [2] (mean ± S.D., n = 4) was 0.14 ± 0.184 ng/mL. Besides, the “Plasma concentration, 0.5 h” value in data set [2] (setting [19]) turned out to be 0.126 ± 0.185 ng/mL. The “Plasma concentration, 1 h” value in data set [2] (setting [13]) was 0.127 ± 0.178 ng/mL. For the same molecule, the “Plasma concentration, 2 h” value in data set [2] (mean ± S.D., n = 4) stood at 0.205 ± 0.0765 ng/mL. Moreover, the “Plasma concentration, 4 h” value in data set [2] (mean ± S.D., n = 4) turned out to be 0.0905 ± 0.181 ng/mL. Also, the “Plasma concentration, 8 h” value in data set [2] (setting [14]) was 0.103 ± 0.129 ng/mL. Also, the “Freeze-thaw stability, RR” value was 114.0% in data set [3] (setting [15]) and 108.8% in data set [3] (setting [16]). Also, the “Short-term stability, RR” value worked out at 93.8% in data set [4] (room temperature 25 h, higher concentration (pachymic acid 800, heptamethoxyflavone 320 pg/mL)); 85.9% in data set [4] (room temperature 25 h, lower concentration (pachymic acid 20, heptamethoxyflavone 8 pg/mL)); 95.1% in data set [4] (setting [17]); 95.8% in data set [4] (setting [18]).
